Test [1] has as its system carrageenin-induced edema. As to the kind of experiment: Carrageenin-induced footpad edema method. Format: in vivo, Wistar rats. The settings on record: 100 mg/kg oral; 5 hours after λ-carrageenin injection. The procedure: The anti-inflammatory effect of sphingomyelin was tested by a carrageenin-induced footpad edema method. Specifically, a test subject shown in Table 15 was suspended in an aqueous solution containing 0.5% carboxymethylcellulose and orally administered (100 mg/kg) to male Wistar rats (body weight: 110 to 130 g, 8 individuals per group) according to the method of Winter et al. (Proceedings of the Society for Experimental Biology & Medicine, vol. 111, pp. 554, 1962). […] An aqueous solution containing 0.5% carboxymethylcellulose and no test substance was administered to rats in a control group. A rate of increase in footpad volume (V0) attributed to the injection of λ-carrageenin was measured in the control group in the same way as above. An carrageenin-induced edema inhibition rate (%) was calculated according to the calculation formula: (V0−V1)×100/V0 and used as the anti-inflammatory activity of the test substance. A higher value of this inhibition rate indicates higher anti-inflammatory activity.
Background: The carrageenan paw model is a standard test of acute inflammation.

For a further test, the system named is cholera toxin. The settings on record: in vivo.
The test system of test [2] is sialomucin content in the saliva. The test can be described thus: Effect of promoting sialomucin secretion: sialomucin content in rat saliva. Format: in vivo, SD rats. The settings on record: 7th day of experimental diet containing 1% of the substance. The protocol:
Seven-week-old male SD rats (manufactured by Charles River Laboratories, Japan, Inc) were raised under conditions involving humidity of 60%, room temperature of 24° C., and light-dark (12 hour/12 hour) control. All the rats were preliminarily raised for 1 week with a standard diet and then divided into 3 groups each containing 12 individuals. These groups were allowed to freely take their respective experimental diets and raised for 1 week. Rat saliva was collected on the 7th day after the administration of experimental diets. A sialomucin content in the saliva was measured by high-performance liquid chromatography. […] In this context, a sialomucin content in the saliva was measured by the following method: 0.2 ml of a Nembutal solution was intramuscularly injected to rats fasted for 2 hours or longer. After anesthesia, a solution of pilocarpine hydrochloride serving as a saliva secretion promoter was intramuscularly injected thereto. […] A sialomucin content in the sialomucin fraction was quantified with a Sialic Acid Fluorescence Labeling Kit (Takara Bio Inc.). […] Free N-acetyl sialic acid or O-acetylated sialic acid was reacted at 55° C. for 2.5 hours by the addition of a DMB reagent as a fluorescence labeling agent and then quantified by high-performance liquid chromatography.

In test [1], `COc1ccc2c(c1)c(CC(=O)O)c(C)n2C(=O)c1ccc(Cl)cc1` [Indomethacin] gave an Inhibition rate of 37.5%.

`CC(=O)N[C@H]1[C@H]([C@H](O)[C@H](O)CO)OC(O)(C(=O)O)C[C@@H]1O` (stereo partly shown) [Sialic acid (derived from milk), Sialic acid] gave an Inhibition rate in test [1] of 38.1%.

sialyllactose [SL, reference compound] yielded an Inhibition rate with cholera toxin of 37.9 ± 2.9%. Besides, the Sialomucin content in test [2] is 24.9 ± 3.1 µg/µL.

The values are drawn from patent publication US8486916B2, “Medicine, food and drink or feed containing sphingomyelin” (Megmilk Snow Brand Co., Ltd., priority 2005, dated 2013).
